Measurements published in patent publication US20250108088A1, “REGENERATIVE PEPTIDES AND METHODS FOR USE THEREOF” (priority 2023, published 2025).
Entries after “also recorded” stand apart in the source; their conditions may differ.

Experiments:
[1] = test system: Acinetobacter baumannii ATCC 196062; assay: Broth microdilution method (MIC50/MIC90); type: cell-based
Experimental: (§1) Cell culture: Cultures of each bacterial strain were prepared by inoculating on Muller Hinton Agar (MHA) medium. After overnight incubation at 37° C., the density of the bacterial cells was compared to the McFarland turbidity standard (0.5).
(§2) Ten-fold serial dilution of the peptide along with controls were prepared in Mueller Hinton Broth (MHB) media in a total volume of 50 μl in 96 well plates. Additionally, 50 μl of the diluted standard inoculum (1:150 in MHB media) were added to each of the well plates. The plates were read at OD600 nm. MIC50 and MIC90 curves were calculated from the plate readout. Each sample was run in duplicate.

[2] = test system: Streptococcus pneumoniae DCC1335; assay: Diffusion agar plate method, zone of inhibition; type: cell-based; details: 62.5 μg/ml to 1000 μg/ml; FIG. 10
Experimental: as §1
(§3) Plates were swabbed with McFarland 0.5 inoculum of each test bacteria. […] serial dilutions of the peptides were prepared and 20 μl of compound were dropped onto the MHA. Antibiotic disc served as a positive control and vehicle alone served as the negative control. Plates were incubated for 16-18 hours and assessed for antibacterial activity. Zones of inhibition were measured for each TA dilution and compared with the controls.

[3] = test system: Acinetobacter baumannii ATCC 196062; assay: Diffusion agar plate method, zone of inhibition; type: cell-based; details: 62.5 μg/ml to 1000 μg/ml; FIG. 5, FIG. 10
Experimental: as §1, §3

skin after dermabrasion [4] = assay: Clinical study, Visioscan skin smoothness after dermabrasion; type: in vivo, human; details: 8, 24, 48 and 72 hours after dermabrasion; vehicle cream base
Experimental: (§4) To determine the effects of exemplary peptides p1-p9 on tissue healing, a clinical study was performed that assessed transepidermal water loss (TEWL) and skin smoothness after dermabrasion.
(§5) This exemplary vehicle cream has a pH of 5.0, no odor and is white in color.
(§6) After 8 hours (T8h) of first product application, the subjects returned to the Institute, acclimated for 15 minutes and new Vapometer® to measure TEWL and Visioscan® VC 20Plus to measure skin smoothness was performed. After 1 (T1d), 2 (T2d) and 3 (T3d) days the subjects returned to the Institute, acclimated for 15 minutes and new measurements were performed. At time-points T1d and T2d new product application was performed by the technician on each test site. A total of 49 study subjects were included in the study and a total of 41 completed the study. The study included post-menopausal female subjects, aged between 50 and 65 years old (mean age: 59 years old), presenting Fitzpatrick Skin Types II-V.
Skin texture images were performed using the Visioscan® VC 20Plus, which allows taking pictures of the skin through magnifying lenses. The images enable a view of the skin topography, texture, dryness, desquamation, blemishes, pores, and cuticles.

skin post-dermabrasion = assay: Clinical study, erythema (Chromameter a* value) post-dermabrasion; type: in vivo, human; details: 4 hours and 12 hours after application
Experimental: To determine the effects of the peptides on skin redness, the peptides P2, P3, and the combination of P2+P3 were tested at different concentration levels and subject's skin redness (erythema) was measured post-dermabrasion and 2, 4, 8, 12, 24, 48 and 72 hours post-application. The subjects were 30 post-menopausal female subjects, aged 50-65 years or younger, if post-menopausal. Enrolled subjects were to have Fitzpatrick Skin Types II-V. At baseline (post-dermabrasion) and 2, 4, 8, 12, 24, 48 and 72 hours post-application, skin redness was measured on 4 skin sites using the Chromameter® (Konica Minolta, Ramsey NJ). In order to determine any changes in skin redness, the a* value was analyzed. The a* value measures redness/erythema in the skin. A decrease in the a* value corresponded to a whitening/improvement (less red) effect and an increase in the a*value represented a darkening/worsening (redder) effect

[5] = test system: Normal human dermal fibroblasts (HNDF); assay: Myofibroblast transition assay (MFT), aSMA immunofluorescence; type: cell-based; details: for Myofibroblast transition (MFT), aSMA/cell, % change relative to control / MFT, Representative value from experiments (% change relative to control): N = 3; for Myofibroblast transition (MFT), aSMA/cell, % change relative to control: TGF-Beta induced HNDF, control of no peptide; for MFT, Representative value from experiments (% change relative to control): most effective significant concentration of 10, 100, 1000 ng/ml
Description: The myofibroblast transition (MFT) assay determines the effect of the peptide on inhibiting the transition of fibroblasts to myofibroblasts. The extracellular matrix produced by myofibroblasts may be produced in excess and may not be remodeled during tissue healing, leaving behind the fibrous connective tissue that forms a scar. Thus, the ability to regulate the degree of MFT may enable control of scarring. To determine if the peptides provided herein affect MFT, the following assay was performed.
Normal human dermal fibroblasts (HNDF) were cultured in high glucose Dulbecco's modified eagle medium (DMEM) supplemented with 10% fetal bovine serum (FBS) and 5 ml of 10,000 units of penicillin/streptomycin. Cells were cultured on 10 cm plates with media changes every 2 days. Cells were passaged in 0.25% Trypsin/EDTA after achieving 80% confluency.
To induce myofibroblast transition (MFT), normal human dermal fibroblasts (HNDFs) were split from 1-10 cm plates to 5-96 well plates. Cells were then allowed to grow the next day. The following day, cells were serum starved (1% FBS in DMEM) for 4 hours prior to adding 20 ng/ml of TGF-Beta to all wells of the plate. 1000 μM of Vactosertib (TEW-7197/EW-7197) was added to serve as a positive control and different concentrations of peptides were added to serve as the test articles. The cells were then exposed to the compounds for 5 more days before fixation.
The cells were fixed in paraformaldehyde (PFA) for 10-15 minutes, then washed 2× in PBS. Cells were blocked in 4% BSA for 30 minutes at 23° C. Cells were stained with the primary alpha-smooth muscle actin (aSMA) antibody (1:100) for 1 hour at 23° C. or left out at 4° C. overnight. Cells were rinsed 2× with BSA and then the secondary antibody mix was added: Alexa 488 (1:500) and DAPI (1:1000) for 30 min at 23° C. or 1 hr at 4° C. The plates were covered during staining, then rinsed 2× in BSA and stored in PBS.
Plates were imaged using the Celigo Imaging Cytometer by Nexcelcom. The ratio of fluorescent expression of alpha-smooth muscle actin (aSMA) and DAPI were quantified to determine the amount of aSMA/cell.
The change (normalized to the control) in MFT for each concentration is shown along with the p value for all experiments relative to the control of no peptide.

skin after dermabrasion [6] = assay: Clinical study, transepidermal water loss (TEWL, Vapometer) after dermabrasion; type: in vivo, human; details: 8, 24, 48 hours, vehicle cream base
Experimental: as §4, §5
as §6, with “The study included post-menopausal female subjects, aged between 50 and 65 years old (mean age: 59 years old), presenting Fitzpatrick Skin Types II-V.” left out
The TEWL measurements were performed by using the Vapometer® device through a measurement probe. The readings were taken by applying the probe to the test sites, by resting it against the skin.
The measurements principle is diffusion, which indicates the mass of water per cm^2 that is transported in a given period of time, that is, the reading indicates the degree of water evaporation on the skin surface based on the sensitivity of hygro-sensors. The scale used is g/h/m^2, in which greater values of reading indicate higher evaporation. […]

[7] = test system: Staphylococcus aureus, Streptococcus pneumoniae, Klebsiella pneumoniae, Pseudomonas aeruginosa, Acinetobacter baumannii; assay: Antimicrobial assays, growth of bacterial strains; type: cell-based
Experimental: Infection is another perturbation that causes fibrosis and may delay or inhibit wound healing. To determine if the peptides of the instant disclosure affect the growth of bacteria, and thus may be appropriate as antimicrobial peptides to be used in anti-fibrotic treatments, growth of the following bacterial strains was tested with the exemplary peptides: Staphylococcus aureus: USA300, ST80, JE2, and MRSA col; Streptococcus pneumoniae: DCC1335 and D39; Klebsiella pneumoniae; Pseudomonas aeruginosa; and Acinetobacter baumannii. […] Thus, in some embodiments, the peptides of the instant disclosure may bacterial growth, by a least 20%, at least 30%, at least 40%, at least 50%, at least 60%, at least 70%, or at least 80% relative to the control.
To determine which peptides may be used to inhibit the growth of bacteria in tissue, the minimum inhibitory and bactericidal concentrations of exemplary peptides against both Gram-positive and Gram-negative bacteria were assessed. […]
The antimicrobial effects of the exemplary peptides were assessed in the following bacterial strains: Staphylococcus aureus: USA300, ST80, JE2, and MRSA col; Streptococcus pneumoniae: DCC1335 and D39; Klebsiella pneumoniae ATCC 10031; Pseudomonas aeruginosa ATCC 27853; and Acinetobacter baumannii ATCC 196062. […]

[8] = test system: Klebsiella pneumoniae ATCC 10031; assay: Minimum bactericidal concentration (MBC); type: cell-based; details: agar plates; FIG. 9
Experimental: (§7) The minimum bactericidal concentration (MBC) test determines the lowest concentration at which an antimicrobial agent will kill a particular microorganism. The MBC is determined using a series of steps, undertaken after a Minimum Inhibitory Concentration (MIC) test has been completed. o determine the MBC, the dilution representing the MIC and at least two of the more concentrated test product dilutions are plated and enumerated to determine viable CFU/ml. The […] of the peptides was determined as the lowest concentration in which colony forming units (CFU) values were <5 colonies/10 μl of culture.

[9] = test system: Acinetobacter baumannii ATCC 196062; assay: Minimum bactericidal concentration (MBC); type: cell-based; details: agar plates; FIG. 9
Experimental: as §7

[10] = test system: Staphylococcus aureus ST80; assay: Minimum bactericidal concentration (MBC); type: cell-based; details: agar plates; FIG. 9
Experimental: as §7

[11] = test system: Staphylococcus aureus strains, including the MRSA col strain; assay: Broth microdilution method (MIC50/MIC90); type: cell-based
Experimental: as §1, §2

[12] = test system: Pseudomonas aeruginosa ATCC 27853; assay: Broth microdilution method (MIC50/MIC90); type: cell-based
Experimental: as §1, §2

[13] = test system: Klebsiella pneumoniae ATCC 10031; assay: Broth microdilution method (MIC50/MIC90); type: cell-based
Experimental: as §1, §2

[14] = test system: Pseudomonas aeruginosa ATCC 27853; assay: Diffusion agar plate method, zone of inhibition; type: cell-based; details: 62.5 μg/ml to 1000 μg/ml; FIG. 5
Experimental: as §1, §3

[15] = test system: Staphylococcus aureus USA300 (NRS384), ST80, JE2, MRSA col; assay: Diffusion agar plate method, zone of inhibition; type: cell-based; details: 62.5 μg/ml to 1000 μg/ml; FIG. 5
Experimental: as §1, §3

[16] = test system: interleukin-8 (IL-8) production in human fibroblasts; assay: Fibroblast inflammation assay (LPS-induced IL-8, ELISA); type: cell-based; details: N = 3, 5 μg/mL LPS, 24 hours
Experimental: Inflammation in fibroblasts leads to the production of the chemokine interleukin-8 (IL-8), which stimulates fibroblast to myofibroblast transition (MFT) thereby enhancing scar formation. To determine if the peptides of the instant disclosure affect fibroblast response to inflammation and fibroblast IL-8 production, the following assays were performed.
Human fibroblasts were grown as described above. HNDFs were plated in 96 well plates at a concentration of 1×10^4 cells/well and allowed to incubate overnight. The next day cells were dosed with 5 μg/mL of LPS with and without the peptides. The negative control contained only media and vehicle, while the positive control was dosed with lipopolysaccharides (LPS) and dexamethasone (50 μg/ml). After 24 hours, the media was removed to measure IL6 and IL8 cytokine levels using ELISA. A standard curve was plotted in excel. All data were blank subtracted and then fit onto the curve to calculate cytokine concentrations.

SLSRTLWAWLPRPCKSN [MBdol20]
MIC50 and MIC90, inhibiting bacterial growth in broth ([1]; FIG. 11): most effective
agar zone of inhibition, inhibiting bacterial growth [2]: effective
agar zone of inhibition, inhibiting bacterial growth [3]: effective

SKPAKAPE [Peptide P3]
skin smoothness (Visioscan) (skin after dermabrasion [4]): visible; also recorded: most promising skin smoothness results
skin redness (erythema), a* value (skin post-dermabrasion): significantly improved erythema; also recorded: improve skin redness
Myofibroblast transition (MFT), aSMA/cell, % change relative to control ([5]; 1000 ng/ml peptide): −0.4914%
MFT, Representative value from experiments (% change relative to control) [5]: −0.4914 p = (0.006) %
aSMA decrease relative to the control (fluorescence, FIG. 3) ([5]; negative control of no peptide): 49%
TEWL, skin barrier restoration (skin after dermabrasion [6]): most promising TEWL assay results; also recorded: most promising results in skin barrier restoration

QRLLEAQAAT [Peptide P2]
skin smoothness (Visioscan) (skin after dermabrasion [4]): visible; also recorded: most promising skin smoothness results
skin redness (erythema), a* value (skin post-dermabrasion): significantly improved erythema; also recorded: improve skin redness
TEWL, skin barrier restoration (skin after dermabrasion [6]): most promising TEWL assay results; also recorded: most promising results in skin barrier restoration

FAYCRSKGLRKRLRKFRNK [MBb32]
inhibition of bacterial growth among those peptides tested [7]: strongest effect
minimum bactericidal concentration (MBC), bactericidal effect [8]: bactericidal effect
minimum bactericidal concentration (MBC), bactericidal effect [9]: bactericidal effect
minimum bactericidal concentration (MBC), bactericidal effect [10]: bactericidal effect
MIC50, growth inhibition of bacteria in broth [11]: low MIC50
MIC50, growth inhibition of bacteria in broth [12]: low MIC50
MIC50, growth inhibition of bacteria in broth [13]: low MIC50
MIC50, growth inhibition of bacteria in broth [1]: lowest MIC50
Myofibroblast transition (MFT), aSMA/cell, % change relative to control ([5]; 100 ng/ml peptide): −0.2592%
Myofibroblast transition (MFT), aSMA/cell, % change relative to control ([5]; 1000 ng/ml peptide): −0.3087%
MFT, Representative value from experiments (% change relative to control) [5]: −0.3087 p = (0.039) %
agar zone of inhibition, inhibiting bacterial growth [14]: effective
agar zone of inhibition, inhibiting bacterial growth [3]: effective
agar zone of inhibition, inhibiting bacterial growth [15]: effective
Fibroblast induced chemokine production (IL-8) induced by LPS (% change relative to control) ([16]; 100 ug/ml peptide): 4% (p = .054)
Fibroblast induced chemokine production (IL-8) induced by LPS (% change relative to control) ([16]; 1000 ug/ml peptide): 29% (p = 0.035)
